# Reference: US7902373B2 (Pfizer Inc, priority 2006, dated 2011)
# Molecular target: human recombinant H-PGDS (Homo sapiens, UniProt O60760)
# Experiment: Fluorescence intensity h-PGDS TBA enzyme assay
# Assay type: biochemical
# Conditions: Examples up to 622 (and 3a, 3b)
# Sequence of human recombinant H-PGDS (O60760 whole entry): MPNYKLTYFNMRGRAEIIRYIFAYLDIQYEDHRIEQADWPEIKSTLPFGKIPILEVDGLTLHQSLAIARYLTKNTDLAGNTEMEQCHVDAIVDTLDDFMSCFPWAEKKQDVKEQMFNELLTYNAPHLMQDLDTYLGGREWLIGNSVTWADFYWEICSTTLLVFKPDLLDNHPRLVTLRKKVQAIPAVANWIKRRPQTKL
row,IC50,Compound
1,2320 pM,"O=C(NC1CCN(Cc2ccc(OC(F)F)c(OC3CC3)c2)CC1)c1ccc(-c2cccc(F)c2)nc1 [Example 486, N-{1-[3-(Cyclopropyloxy)-4-(difluoromethoxy)benzyl]piperidin-4-yl}-6-(3-fluorophenyl)nicotinamide]"
2,372 pM,COc1c(C)cnc(CN2CCC(NC(=O)c3ccc(-c4cccc(F)c4)nc3)CC2)c1C [Example 487]
3,489 pM,"O=C(NC1CCN(Cc2ccc(-c3ccn[nH]3)cc2)CC1)c1ccc(-c2cccc(F)c2)nc1 [Example 488, 6-(3-Fluorophenyl)-N-{1-[4-(1H-pyrazol-5-yl)benzyl]piperidin-4-yl}nicotinamide]"
4,1180 pM,"Nc1ncncc1CN1CCC(NC(=O)c2ccc(-c3cccc(F)c3)nc2)CC1 [Example 489, N-{1-[(4-Aminopyrimidin-5-yl)methyl]piperidin-4-yl}-6-(3-fluorophenyl)nicotinamide]"
5,601 pM,"O=C(NC1CCN(Cc2cccc3c2OCC3)CC1)c1ccc(-c2cccc(F)c2)nc1 [Example 490, N-[1-(2,3-Dihydro-1-benzofuran-7-ylmethyl)piperidin-4-yl]-6-(3-fluorophenyl)nicotinamide]"
6,2400 pM,"COc1ccc2nccc(CN3CCC(NC(=O)c4ccc(-c5cccc(F)c5)nc4)CC3)c2n1 [Example 491, 6-(3-Fluorophenyl)-N-{1-[(6-methoxy-1,5-naphthyridin-4-yl)methyl]piperidin-4-yl}nicotinamide]"
7,285 pM,"O=C(NC1CCN(Cc2ccc(-n3ccnn3)cc2)CC1)c1ccc(-c2cccc(F)c2)nc1 [Example 492, 6-(3-Fluorophenyl)-N-{1-[4-(1H-1,2,3-triazol-1-yl)benzyl]piperidin-4-yl}nicotinamide]"
8,1100 pM,"O=C(NC1CCN(Cc2ccc(-n3nccn3)cc2)CC1)c1ccc(-c2cccc(F)c2)nc1 [Example 493, 6-(3-Fluorophenyl)-N-{1-[4-(2H-1,2,3-triazol-2-yl)benzyl]piperidin-4-yl}nicotinamide]"
9,817 pM,"COc1cc(CN2CCC(NC(=O)c3ccc(-c4cccc(F)c4)nc3)CC2)cc2c1OCCO2 [Example 494, 6-(3-Fluorophenyl)-N-{1-[(8-methoxy-2,3-dihydro-1,4-benzodioxin-6-yl)methyl]piperidin-4-yl}nicotinamide]"
10,409 pM,"Cn1nncc1CN1CCC(NC(=O)c2ccc(-c3cccc(F)c3)nc2)CC1 [Example 495, 6-(3-Fluorophenyl)-N-{1-[(1-methyl-1H-1,2,3-triazol-5-yl)methyl]piperidin-4-yl}nicotinamide]"
11,569 pM,"COc1cc(CN2CCC(NC(=O)c3ccc(-c4cccc(F)c4)nc3)CC2)ccc1C [Example 496, 6-(3-Fluorophenyl)-N-[1-(3-methoxy-4-methylbenzyl)piperidin-4-yl]nicotinamide]"
12,1060 pM,"O=C1COc2ccc(CN3CCC(NC(=O)c4ccc(-c5cccc(F)c5)nc4)CC3)cc2N1 [Example 497, 6-(3-Fluorophenyl)-N-{1-[(3-oxo-3,4-dihydro-2H-14-benzoxazin-6-yl)methyl]piperidin-4-yl}nicotinamide]"
13,300 pM,"Cn1ncc(CN2CCC(NC(=O)c3ccc(-c4cccc(F)c4)nc3)CC2)c1-c1ccccc1 [Example 498, 6-(3-Fluorophenyl)-N-{1-[(1-methyl-5-phenyl-1H-pyrazol-4-yl)methyl]piperidin-4-yl}nicotinamide]"
14,1640 pM,"COc1ccc(-c2c(CN3CCC(NC(=O)c4ccc(-c5cccc(F)c5)nc4)CC3)cnn2C)cc1 [Example 499, 6-(3-Fluorophenyl)-N-(1-{[5-(4-methoxyphenyl)-1-methyl-1H-pyrazol-4-yl]methyl}piperidin-4-yl)nicotinamide]"
15,633 pM,"Cn1ncc(CN2CCC(NC(=O)c3ccc(-c4cccc(F)c4)nc3)CC2)c1-c1ccc(F)cc1 [Example 500, 6-(3-Fluorophenyl)-N-(1-{[5-(4-fluorophenyl)-1-methyl-1H-pyrazol-4-yl]methyl}piperidin-4-yl)nicotinamide]"
16,432 pM,"CS(=O)(=O)Nc1cccc(CN2CCC(NC(=O)c3ccc(-c4cccc(F)c4)nc3)CC2)c1 [Example 501, 6-(3-Fluorophenyl)-N-(1-{3-[(methylsulfonyl)amino]benzyl}piperidin-4-yl)nicotinamide]"
17,1990 pM,"O=C(NC1CCN(Cc2ccc3cc[nH]c3c2)CC1)c1ccc(-c2cccc(F)c2)nc1 [Example 502, 6-(3-Fluorophenyl)-N-[1-(1H-indol-6-ylmethyl)piperidin-4-yl]nicotinamide]"
18,2700 pM,"Cc1ccc(CN2CCC(NC(=O)c3ccc(-c4cccc(F)c4)nc3)CC2)c(F)c1 [Example 503, N-[1-(2-Fluoro-4-methylbenzyl)piperidin-4-yl]-6-(3-fluorophenyl)nicotinamide]"
19,2840 pM,"Cc1cc(C)n2nc(CN3CCC(NC(=O)c4ccc(-c5cccc(F)c5)nc4)CC3)nc2n1 [Example 504, N-{1-[(5,7-Dimethyl[1,2,4]triazolo[1,5-a]pyrimidin-2-yl)methyl]piperidin-4-yl}-6-(3-fluorophenyl)nicotinamide]"
20,418 pM,"CC1(CN2CCC(NC(=O)c3ccc(-c4cccc(F)c4)nc3)CC2)CC1 [Example 505, 6-(3-Fluorophenyl)-N-{1-[(1-methylcyclopropyl)methyl]piperidin-4-yl}nicotinamide]"
21,1250 pM,"COc1cccc(-c2c(CN3CCC(NC(=O)c4ccc(-c5cccc(F)c5)nc4)CC3)cnn2C)c1 [Example 506, 6-(3-Fluorophenyl)-N-(1-{[5-(3-methoxyphenyl)-1-methyl-1H-pyrazol-4-yl]methyl}piperidin-4-yl)nicotinamide]"
22,551 pM,"Cn1ncc(CN2CCC(NC(=O)c3ccc(-c4cccc(F)c4)nc3)CC2)c1-c1cccc(F)c1 [Example 507, 6-(3-Fluorophenyl)-N-(1-{[5-(3-fluorophenyl)-1-methyl-1H-pyrazol-4-yl]methyl}piperidin-4-yl)nicotinamide]"
23,551 pM,"COc1ccccc1-c1c(CN2CCC(NC(=O)c3ccc(-c4cccc(F)c4)nc3)CC2)cnn1C [Example 508, 6-(3-Fluorophenyl)-N-(1-{[5-(2-methoxyphenyl)-1-methyl-1H-pyrazol-4-yl]methyl}piperidin-4-yl)nicotinamide]"
24,665 pM,"Cc1ccccc1-c1c(CN2CCC(NC(=O)c3ccc(-c4cccc(F)c4)nc3)CC2)cnn1C [Example 509, 6-(3-Fluorophenyl)-N-(1-{[1-methyl-5-(2-methylphenyl)-1H-pyrazol-4-yl]methyl}piperidin-4-yl)nicotinamide]"
25,2740 pM,"Cc1ccc(-c2c(CN3CCC(NC(=O)c4ccc(-c5cccc(F)c5)nc4)CC3)cnn2C)cc1 [Example 510, 6-(3-Fluorophenyl)-N-(1-{[1-methyl-5-(4-methylphenyl)-1H-pyrazol-4-yl]methyl}piperidin-4-yl)nicotinamide]"
26,1090 pM,"CC1(CN2CCC(NC(=O)c3ccc(-c4cccc(F)c4)nc3)CC2)CCC1 [Example 511, 6-(3-Fluorophenyl)-N-{1-[(1-methylcyclobutyl)methyl]piperidin-4-yl}nicotinamide]"
27,391 pM,"O=C(NC1CCN(Cc2n[nH]c3ccc(Cl)cc23)CC1)c1ccc(-c2cccc(F)c2)nc1 [Example 512, N-{1-[(5-Chloro-1H-indazol-3-yl)methyl]piperidin-4-yl}-6-(3-fluorophenyl)nicotinamide]"
28,363 pM,"O=C(NC1CCN(Cc2n[nH]c3ccccc23)CC1)c1ccc(-c2cccc(F)c2)nc1 [Example 513, 6-(3-Fluorophenyl)-N-[1-(1H-indazol-3-ylmethyl)piperidin-4-yl]nicotinamide]"
